Tests used:
[1] = biological target: Recombinant human glycogen synthase kinase 3β (Homo sapiens, UniProt P49841); test: GSK3β inhibition, radiometric kinase assay with GS-2 peptide and 33P-ATP
Experimental: Recombinant human glycogen synthase kinase 3B was assayed in MOPS 8 mM pH7.3, EDTA 0.2 mM, MgCl. 10 mM and sodium orthovanadate 0.25 mM in the presence of 62.5 μM of Phospho-Glycogen Synthase Peptide-2 (GS-2), 0.5 μCi γ-^33P-ATP and unlabelled ATP at a final concentration of 12.5 μM. The final assay volume was 20 μl. After incubation for 30 minutes at 30° C., 15 μl aliquots were spotted onto P81 phosphocellulose papers. Filters were washed four times for at least 10 minutes each and counted with 1.5 ml of scintillation cocktail in a scintillation counter.

[2] = test system: Tau phosphorylation [pS396] in human neuroblastoma SHSY5Y cells; test: Inhibition of tau phosphorylation in SHSY5Y cells, Tau [pS396] sandwich ELISA; assay type: cell-based; details: at 200 μM, 24 h
Experimental: 1.1.2. Inhibition of Tau Phosphorylation Human neuroblastoma SHSY5Y cells were seeded in 96-well plates (25000 cells/well) in Dulbecco's modified Eagle's medium (DMEM) supplemented with 10% fetal calf serum. One day later, cells were treated with samples for 24 h at 37° C. After treatment, cultures were washed with phosphate-buffered saline and lysed for 30 min at 4° C. in 120 μl of extraction buffer (10 mM Tris-HCl, pH 7.4, 100 mM NaCl, 1 mM EDTA, 2 mM Na3VO4, 1% Triton X-100, 10% glycerol, 0.1% SDS, 0.5% Sodium deo.ycholate, 1 mM PMSF and a protease inhibitor cocktail.
The quantitative definition of phosphorylated human Tau was made taking 40 μl of the cell lysate and using a phosphorylation-specific antibody against Tau [pS396] in a sandwich ELISA. Tau phosphorylation was estimated by measuring of absorbance at 450 nm in a microtiter plate reader.

Recombinant human glycogen synthase kinase 3β, sequence (P49841 whole entry): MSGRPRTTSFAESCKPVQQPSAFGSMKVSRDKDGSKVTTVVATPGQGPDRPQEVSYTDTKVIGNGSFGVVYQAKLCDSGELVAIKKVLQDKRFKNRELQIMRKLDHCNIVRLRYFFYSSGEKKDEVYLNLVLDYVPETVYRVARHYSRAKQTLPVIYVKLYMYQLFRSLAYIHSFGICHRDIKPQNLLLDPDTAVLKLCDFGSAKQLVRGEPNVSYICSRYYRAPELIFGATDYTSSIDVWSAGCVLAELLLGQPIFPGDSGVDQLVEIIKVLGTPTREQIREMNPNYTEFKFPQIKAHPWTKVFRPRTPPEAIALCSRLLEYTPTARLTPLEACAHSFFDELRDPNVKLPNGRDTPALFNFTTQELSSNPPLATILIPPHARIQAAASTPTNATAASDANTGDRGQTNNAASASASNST

SMILES	IC50 [1] [µM]	mechanism of inhibition of GSK3β ([1]; kinetic experiments varying both ATP and inhibitor concentrations, preliminary)	inhibition of tau phosphorylation, cellular assay [2]
CC1=C(O)[C@@H](C/C(C)=C/CC[C@H](C)/C=C/C=C(\C)CCCc2ccoc2)OC1=O [Palinurin]	4.5	non As-competitive inhibitor	significant inhibition
C/C(=C\C=C\C(C)CC/C=C(\C)CC1OC(=O)C(=O)C1=O)CCCc1ccoc1 (stereo not shown) [Tricantin]	–	–	significant inhibition
